Measured values: patent US12409199B2, “Methods of treating endometriosis and other noncancer gynecological disorders with hemp extract” (Ecofibre USA Inc., priority 2021, dated 2025)
Where two headings read alike, the source gives them in different places.

Experiments:
[1] = test system: patient derived organoids; assay: Death of patient derived organoids, % of cells that died compared to control (Table 4); type: cell-based, human
Protocol: In addition to the agents listed above, several other drugs were tested to see if they influenced organoid growth. […] This is consistent with the patient's actual lack of response to treatment with paclitaxel.

[2] = test system: endometriosis based organoids; assay: % viability of endometriosis based organoids (FIG. 6A/6B); type: cell-based, human
Protocol: After narrowing down the range in which 50% of endometrial cancer organoids were inhibited from forming in the presence of BSHE, we then turned to other cannabis extracts comprising CBE to determine their efficacy in inhibiting cancerous organoid formation. […] These cannabis extracts were then tested against endometrial based organoids, which confirm the efficacy across the different cells, both in the endometrial cancer based organoids as well as in the endometriosis based organoids.
FIG. 6B then tests the same endometrial based organoids with a CBDA isolate. Here, slightly higher concentrations were required to reach below 10% viability. […] However, these studies confirm that the efficacy of the CE comprising CBD was conserved over different grades of endometrial cancer and also to endometriosis based organoids.

[3] = test system: patient derived endometrial cancer cells; assay: Patient-derived xenograft (PDX) mice, endometrial cancer tumor volume (FIG. 7); type: in vivo; conditions: for decrease in tumor volume compared to starting size: day 14 (6 doses)
Protocol: Mouse studies are useful to take cell-based applications and confirm their efficacy in a whole animal system. Furthermore, the mice allow for testing of systemic delivery of the drugs. […] The mice tests were performed according to the protocol in the method section, below.
Generally, EC stem cells from the same patients that participated in the organoid studies for endometrial cancer, were injected into the mice, and allowed to grow. After tumors reached a certain size, the mice were either injected (3 times/week) with the extract-delivery vehicle or with the particular cannabis extract. After a certain amount of time elapsed, tumor size was measured. The details regarding patient-derived xenograft methodology and experimental protocol are provided in the Methods section.
The % change is an average number taken from tumor volumes of three mice compared to the starting average tumor volume on day 0 of treatment. Change can either be positive (tumor increases in size) or negative (tumor decreases in size).
Human patient cells from endometrial cancer were injected subcutaneously into female NOD/SCID gamma mice after resuspending in 100 μL solution. […] Tumor size was measured before treatment, followed by twice a week measurements. All treatment group mice were kept alive for up to 10 weeks after drug injection or until the tumor volume grows bigger than 2500 mm^3.
Tumor size was measured along with body weight at the time of tissue collection. All tumor tissues were removed carefully from the euthanized mouse body. Tumor tissue samples were kept for histology, proteomics, genomics, and other downstream processing. All downstream processing was completed following NCI Patient-Derived Models Repository SOPs.

[4] = test system: organoids crafted from the patient's endometrial cancer; assay: Response of organoids crafted from the patient's endometrial cancer to alternative chemotherapies and BSHE; type: cell-based, human
Excerpt: See, Tables 1 and 2, below.

[5] = test system: stage IV chemoresistant endometrial cancer with metastatic disease; assay: Treatment of a patient with stage IV chemoresistant endometrial cancer, PET/CT follow up
Excerpt: Soon after the experiments detailed above a person came to us. They were initially diagnosed with endometriosis, and later diagnosed with endometrial cancer after presenting with significant pain and discomfort. They had already undergone a total hysterectomy and bilateral salpingo-oophorectomy followed by five rounds of chemotherapy. Each of the first five rounds of chemotherapy was a combined chemotherapy with Paclitaxil/Carboplatin.
See, Tables 1 and 2, below. […] As such, […] began standard protocol GemCap treatment in combination with a regime of 30 mg of BSHE twice daily via oral mucosal delivery and 75 mg of FSHE once daily via intravaginal delivery.

[6] = test system: organoids derived from ovarian cancer tissue; assay: Impact of pH on % viable organoids (FIG. 9)
[7] = cited from earlier work
[8] = oral; cited from earlier work
[9] = test system: non-transformed cells; conditions: cited from earlier work
[10] = before cannabis extract treatment

## N.N.[Cl][Pt][Cl] [Cisplatin]
[1]
  % Cell Death: 36%

## 5-Fluorouaracil/Capecitabine
[1]
  % Cell Death: 61%

## C=C(C)[C@@H]1CCC(C)=C[C@H]1c1c(O)cc(CCCCC)c(C(=O)O)c1O [CBDA isolate, cannabidiolic acid]
[2]; 50 μg/mL, FIG. 6B
  viability outcome: complete resolution
[2]; Homo sapiens, 15 μg/mL, FIG. 6B
  viability at 15 µg/mL: < 50%
[2]; Homo sapiens, 25 μg/mL, FIG. 6B, <10% is considered 95-100% cell death
  viability at 25 µg/mL: < 10%
[3]; 30 mg/kg injected 3 times/week, day 7 (3 doses)
  increase in average tumor volume vs day 0: greater than 30%
[3]; 30 mg/kg injected 3 times/week, day 10
  decrease in average tumor volume vs day 0: greater than 30%
[3]; 30 mg/kg, day 7 to day 10
  overall decrease in average tumor volume in three days: greater than 60%
[3]; 30 mg/kg
  decrease in tumor volume compared to starting size: 70%
[3]; 30 mg/kg, day 21 (9 doses)
  decrease in average tumor volume: ~100%

## gemcitabine/capecitabine [GemCap]
[4]
  response of the patient's organoids: partial response

## Paclitaxil/Carboplatin [reference compound]
[5]; [10]
  clinical outcome of earlier therapy: ineffective

## Bleomycin
[1]
  % Cell Death: 53%

## O=P1(N(CCCl)CCCl)NCCCO1 (centres unmarked) [Cyclosphosphamide]
[1]
  % Cell Death: 32%

## C=C(C)[C@@H]1CCC(C)=C[C@H]1c1c(O)cc(CCCCC)cc1O [CBD isolate, cannabidiol]
[2]; tested at 0, 1, 2, 3, 4, 5, 7, 10 μg/mL, FIG. 6A
  lowest dose at which the organoids are completely treated: 5 µg/mL
[6]; 10 μg/mL, pH 8
  efficacy compared with native pH: virtually no change
[6]; pH 4
  viability at 10 µg/mL: < 1%
[6]; read-out: % of viable organoids
  viability at 10 µg/mL: ~12%
[7]; WHO 41st Expert Committee on Drug Dependence
  potential for abuse or dependence: no potential for abuse and no potential to produce dependence
[7]; chronic use, humans
  well tolerated dose: up to 1,500 mg/day
[7]; in vivo
  effect on physiological parameters (heart rate, blood pressure and body temperature), gastrointestinal transit, psychomotor or psychological functions: does not affect
[3]; 30 mg/kg injected 3 times/week
  tumor response over the 21 days of treatment: not as responsive
[3]; 30 mg/kg
  decrease in tumor volume compared to starting size: less than 50%
[8]
  delayed maximum plasma concentration (time) in some individuals: up to 6 hours
[9]
  toxicity: non-toxic

## N.N.O=C([O-])C1(C(=O)[O-])CCC1.[Pt+2] [Carboplatin]
[1]
  % Cell Death: 30%

## CCN1CCN(Cc2ccc(Nc3ncc(F)c(-c4cc(F)c5nc(C)n(C(C)C)c5c4)n3)nc2)CC1 [Abemaciclib, reference compound]
[5]; human, in vivo
  adverse effects of earlier therapy: severe adverse effects

## Atezolizumab
[5]; [10]
  adverse effects of earlier therapy: severe adverse effects
  clinical outcome of earlier therapy: failed
